Source: patent US12295964B2, “Treating pain associated with chemotherapy-induced peripheral neuropathy” (MEDICON PHARMACEUTICALS, INC., priority 2021, dated 2025)
Values joined by “and” are separate entries in the source; they are usually repeats but may differ in a detail not shown here. Equal entries are not always repeated. Where two headings read alike, the source gives them in different places. Blank lines part the entries; values can stand above or below the molecule they belong to.

How the values were obtained:
[1] = tested on: paclitaxel-induced CIPN in mice; experiment: Cold allodynia (acetone test) in paclitaxel-induced CIPN; format: in vivo, mouse
Experimental: For cold allodynia, mice with paclitaxel-induced CIPN were treated with PS 5% or vehicle for 15 days after the induction of CIPN. The acetone test was used. Briefly, acetone was applied onto the plantar surface of each hind paw. The time each mouse spent licking, lifting, and/or shaking the hind paw recorded over 60 seconds was the score for cold allodynia. Measurements were performed on day-8 (before the first paclitaxel injection), the day of starting treatment (day 0) and then on day 15.

[2] = tested on: paclitaxel-induced CIPN in C57BL/6J mice; experiment: Treatment of paclitaxel-induced CIPN, mechanical allodynia (von Frey test)
Experimental: Adult male C57BL/6J mice, 8 weeks of age at the beginning of the experiments and weighing 20-30 g, were purchased from The Jackson Laboratory (Bar Harbor, ME). Mice were housed in an AAALAC-accredited facility in groups of four. Food and water were available ad libitum. The mice in each cage were randomly allocated to treatment groups. All studies were conducted by experimenters blinded to the identity of the treatment groups. Experiments were performed during the light cycle (7:00 am to 7:00 pm) and animals were euthanized with CO2 asphyxiation. Studies were approved by the relevant Institutional Animal Care and Use Committee and followed the National Institutes of Health Guidelines for the Care and Use of Laboratory Animals. Animal studies are reported in compliance with the ARRIVE guidelines.
CIPN was induced in mice with three different chemotherapeutic compounds using established protocols (Carozzi et al., Exp Neurol (2010); 226:301-309; Currie et al., PLOS Biol (2019); 17:e3000243; Eldridge et al., Toxicol Pathol (2020); 48:190-201). Each of the three chemotherapeutic compounds were prepared and dosed as follows. • Paclitaxel: paclitaxel (purchased from MilliporeSigma (St. Louis, MO)) was dissolved in a mixture of 1 volume ethanol/1 volume Cremophor EL (EMD Millipore Corp, Burlington, MA)/18 volumes distilled water. Paclitaxel was administered as four intraperitoneal injections of 8 mg/kg paclitaxel (in a volume of 1 ml/100 g body weight) every other day, resulting in a cumulative dose of 32 mg/kg. • Oxaliplatin: Oxaliplatin was dissolved in ddH2O.
Mechanical allodynia was measured at the time points recorded in the figures.
Mechanical allodynia thresholds were determined using von Frey filaments according to an established method (Chaplan et al., J Neurosci Methods (1994); 53:55-63; Bagdas et al., Biochem Pharmacol (2015); 97:590-600). Briefly, mice were placed in a quiet room for 30 min and then were put in a Plexiglas cage with mesh metal flooring and allowed to acclimatise for 30 min before testing. A series of calibrated von Frey filaments (Stoelting, Wood Dale, IL) with incremental stiffness were applied perpendicularly to the paw with sufficient force to cause slight bending and held 2-3 s. This process was repeated at each level of stiffness 5 times, a few seconds apart. Paw withdrawn, licking or shaking were considered positive responses. The mechanical threshold, expressed as g, indicates the force of the von Frey filament to which the animal reacted.
Results are expressed as mean±SEM. […] Analysis of variance (ANOVA) tests were conducted and followed by the Bonferroni post hoc test. Differences were determined to be significant at P<0.05.

[3] = tested on: paclitaxel-induced CIPN in C57/BL/6J mice; experiment: Comparison with sulindac, lidocaine and pregabalin in paclitaxel CIPN, mechanical allodynia (PWT, von Frey)
Experimental: CIPN was established by administration of paclitaxel into C57/BL/6J mice. The paclitaxel was administered into all study groups below: • 1. Group 1: paclitaxel plus vehicle (n=8) • 2. […] Group 4: paclitaxel plus 0.7% sulindac (n=8) • 5. Group 5: paclitaxel plus 5% lidocaine cream (n=8) • 6.
Regarding the treatment with lidocaine: 5% lidocaine cream (a positive control) was applied once to both hind paws of the mice 30 minutes before measurement of PWT.
To determine the outcome of treatment, assessment of mechanical allodynia was performed. […] Mechanical and cold allodynia are determined at least one day apart in the same animal.
Briefly, for mechanical allodynia, pain threshold responses were measured using the well-established method of von Frey filaments in line with that performed in the earlier Examples. The PWT test was performed on day-8 (before the first dose of paclitaxel), the day of starting treatment (day 0, at which CIPN was fully established) and day 14 (treatment continued until day 15). The mechanical threshold, expressed as g, indicates the force of the von Frey filament to which the animal reacted.

[4] = tested on: paclitaxel-induced CIPN in C57BL/6J mice; experiment: Prevention of paclitaxel-induced CIPN pain, mechanical allodynia (von Frey test); conditions: for mechanical allodynia score, mean±SEM: day 10, PS 8% ointment to hind paws started 2 days before first paclitaxel (8 mg/kg ip every other day x4)
Experimental: In the prevention study depicted in FIG. 8, three of the four study groups of mice were treated with paclitaxel (one injection every other day for a total of four) while the fourth group received the solvent alone, serving as control.

[5] = tested on: paclitaxel-induced CIPN in C57/BL mice; experiment: Prevention of neuropathic pain in paclitaxel mouse model of CIPN, paw withdrawal threshold (von Frey); format: in vivo; conditions: day 6 after first paclitaxel (10 mg/kg ip daily x5); PS 8% hydrogel topically to both hind paws 3 times a day for 7 days, started 2 days before paclitaxel
Experimental: In order to establish CIPN, paclitaxel is administered at 10 mg/kg intraperitoneally into C57/BL mice. […] This dosing regimen of paclitaxel produces pain associated with CIPN with time courses that are similar to those of pain after paclitaxel administration in cancer patients.
The first doses were administered 2 days prior to the first administration of paclitaxel.
In particular, a simplified up-down method for estimating paw withdrawal threshold (PWT) using von Frey filaments was used (as described in Bonin et al., Molecular Pain (2014); 10(26):1-10)). The results of the PWT test are expressed as force applied (gm).

[6] = PS and metabolites in proximal and distal half of the sciatic nerve of mice with paclitaxel-induced PN; format: in vivo, mouse; conditions: for concentration at 30 min: mean ± SEM
Experimental: In a separate experiment we studied 8 mice with paclitaxel-induced PN treated with PS 8% ointment 3×/d for 2 wks. Mice were euthanized as above 30 minutes after the last dose of PS. From these mice we harvested both sciatic nerves dividing each into proximal and distal halves, and combined the corresponding halves of every two animals for assay of drug levels.

[7] = Pharmacokinetics and biodistribution of topical PS in normal mice; format: in vivo, mouse; conditions: for Cmax: read-out: Cmax, μM mean ± SEM
Experimental: PS 8% ointment was applied topically to each hind paw (50 μl per paw) with gentle rubbing. At 0.5, 1, 3, 5, 12, 18, and 24 h, mice (n=4-5 mice/time point) were euthanized with CO2 inhalation. Blood was drawn immediately after death. Tissues, including paw skin, paw muscle, leg muscle, the sciatic nerve and lumbar DRG bilaterally were dissected quickly, immediately frozen in liquid nitrogen and stored at −80° C. until analyzed.

[8] = tested on: CIPN model; conditions: Hidaka et al. (2009); cited from earlier work
[9] = tested on: oxaliplatin-induced CIPN in C57BL/6J mice; experiment: Treatment of oxaliplatin-induced CIPN, mechanical allodynia (von Frey test); format: in vivo, mouse
Excerpt: (§1) Food and water were available ad libitum.
(§2) Results are expressed as mean±SEM. […] Non-compartmental analyses were employed.

[10] = tested on: vincristine-induced CIPN in C57BL/6J mice; experiment: Treatment of vincristine-induced CIPN, mechanical allodynia (von Frey test); format: in vivo, mouse
Excerpt: as §1, §2

[11] = tested on: mice; experiment: Safety of PS ointment during the CIPN treatment studies; format: in vivo, mouse; conditions: PS ointment thrice daily to hind paws for up to 22 days
Excerpt: This finding is in keeping with the known safety profile of PS.

[12] = target: COX-1 (Homo sapiens, UniProt P23219); conditions: cited from earlier work
[13] = target: T1, COX-2 (Homo sapiens, UniProt P35354); conditions: cited from earlier work
T1 sequence (P35354 18-604): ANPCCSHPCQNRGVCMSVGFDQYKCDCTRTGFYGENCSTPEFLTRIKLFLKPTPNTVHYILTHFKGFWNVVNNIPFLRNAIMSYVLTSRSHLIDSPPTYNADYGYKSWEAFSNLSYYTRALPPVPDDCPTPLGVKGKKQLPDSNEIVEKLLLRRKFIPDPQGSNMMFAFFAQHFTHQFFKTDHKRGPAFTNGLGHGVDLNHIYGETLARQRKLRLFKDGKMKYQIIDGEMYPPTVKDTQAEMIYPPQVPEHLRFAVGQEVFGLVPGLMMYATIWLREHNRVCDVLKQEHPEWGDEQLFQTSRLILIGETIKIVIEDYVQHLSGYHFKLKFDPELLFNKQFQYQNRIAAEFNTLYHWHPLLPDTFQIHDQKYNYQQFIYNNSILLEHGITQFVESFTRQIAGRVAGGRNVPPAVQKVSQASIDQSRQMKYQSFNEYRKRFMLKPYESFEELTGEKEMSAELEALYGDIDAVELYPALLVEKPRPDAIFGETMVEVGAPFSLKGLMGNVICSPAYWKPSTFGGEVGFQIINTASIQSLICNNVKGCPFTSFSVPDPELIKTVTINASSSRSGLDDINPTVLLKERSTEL

[14] = tested on: paclitaxel-induced CIPN in C57/BL mice; experiment: Treatment of established neuropathic pain in paclitaxel mouse model of CIPN, PWT (von Frey); format: in vivo; conditions: day 10, about 30 min after last application; paclitaxel 10 mg/kg ip daily x3; PS 8% hydrogel to both hind paws 3 times a day for 10 days, started 2 days after last paclitaxel
Experimental: The first doses were administered 2 days after the last administration of paclitaxel.
The data is expressed as percent change from the respective baseline value.

[15] = mouse, in vivo, Distal half of the sciatic nerve
[16] = mouse, in vivo, Proximal half of the sciatic nerve, μM
[17] = 30 min after last dose, PS 8% ointment 3x/d for 2 wks
[18] = 30 min after last dose, mice with paclitaxel-induced PN, PS 8% ointment 3x/d for 2 wks
[19] = DRG (dorsal root ganglia), normal mice, PS 8% ointment topically 50 μl per hind paw
[20] = SN (sciatic nerve), normal mice, PS 8% ointment topically 50 μl per hind paw
[21] = leg muscle, normal mice, PS 8% ointment topically 50 μl per hind paw
[22] = paw muscle, normal mice, PS 8% ointment topically 50 μl per hind paw
[23] = paw skin, normal mice, PS 8% ointment topically 50 μl per hind paw

Sequence of COX-1 (P23219 24-599): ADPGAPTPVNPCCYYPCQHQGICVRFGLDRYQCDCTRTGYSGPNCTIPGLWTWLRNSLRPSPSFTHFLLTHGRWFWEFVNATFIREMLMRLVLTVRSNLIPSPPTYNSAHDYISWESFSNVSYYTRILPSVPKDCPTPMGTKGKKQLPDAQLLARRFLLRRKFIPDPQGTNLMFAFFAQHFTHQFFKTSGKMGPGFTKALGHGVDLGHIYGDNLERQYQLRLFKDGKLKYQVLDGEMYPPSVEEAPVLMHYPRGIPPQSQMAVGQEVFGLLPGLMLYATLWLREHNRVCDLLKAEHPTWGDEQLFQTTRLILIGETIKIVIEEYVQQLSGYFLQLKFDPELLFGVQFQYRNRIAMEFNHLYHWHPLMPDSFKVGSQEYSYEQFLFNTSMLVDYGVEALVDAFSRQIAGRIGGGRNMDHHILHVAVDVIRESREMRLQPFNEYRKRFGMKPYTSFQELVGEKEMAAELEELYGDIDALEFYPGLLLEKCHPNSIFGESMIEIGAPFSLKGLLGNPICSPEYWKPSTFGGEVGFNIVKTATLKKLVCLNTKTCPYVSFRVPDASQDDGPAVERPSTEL

- cold allodynia score (acetone test), Mean±SEM ([1]; after paclitaxel treatment (4.5±0.24 sec before)): 7.1 ± 0.4 s
- reduction of mechanical allodynia scores by the chemotherapeutic ([2]; paclitaxel administered over 12 days, vs baseline): ~85%
- mechanical allodynia score, mean±SEM ([3]; day 0, CIPN fully established after paclitaxel (1.83±0.14 g before paclitaxel)): 0.55 ± 0.05 g
- mechanical allodynia score lower than solvent control ([4]; day 10, paclitaxel group vs control): 53%
Molecule: CC(=O)O[C@H]1C(=O)[C@@]2(C)[C@H]([C@H](OC(=O)c3ccccc3)[C@]3(O)C[C@H](OC(=O)[C@H](O)[C@@H](NC(=O)c4ccccc4)c4ccccc4)C(C)=C1C3(C)C)[C@]1(OC(C)=O)CO[C@@H]1C[C@@H]2O [Paclitaxel, paclitaxel, reference compound]
- mechanical allodynia score, mean±SEM [4]: 0.7 ± 0.17 g
- PWT, gm Mean ± SEM [5]: 0.3 ± 0.01 gm

- Fold difference (distal vs proximal half of sciatic nerve) ([6]; mouse, in vivo, 30 min): 4.5-8.5
- concentration at 30 min [6, 15]: 3.5 ± 1 µM
- concentration at 30 min [6, 16]: 0 µM
Molecule: CSc1ccc(/C=C2/C(C)=C(CC(=O)O)c3cc(F)ccc32)cc1 [Sulindac sulfide, sulindac sulfide]

Molecule: CC1=C(CC(=O)O)c2cc(F)ccc2/C1=C\c1ccc(S(C)(=O)=O)cc1 [Sulindac sulfone, sulindac sulfone]
- Distal half of the sciatic nerve, mean ± SEM ([6]; mouse, in vivo): 0.9 ± 0.2 µM
- Proximal half of the sciatic nerve, μM, mean ± SEM ([6]; mouse, in vivo): 0.2 ± 0.08 µM

Molecule: CC1=C(CC(=O)O)c2cc(F)ccc2/C1=C\c1ccc([S+](C)[O-])cc1 (stereo not drawn) [Sulindac, sulindac, reference compound]
- Fold difference (distal vs proximal half of sciatic nerve) [6, 17]: 8.5
- concentration at 30 min [6, 15]: 3.4 ± 1.1 µM
- concentration at 30 min [6, 16]: 0.4 ± 0.03 µM
- sulindac levels relative to those of PS ([7]; all tissues except the sciatic nerve (higher) and DRG (equal), topical PS 8% ointment): around 25%

Molecule: CCN(CC)CC(=O)Nc1c(C)cccc1C [lidocaine, reference compound]
- PWT, g Mean ± SEM ([3]; 5% lidocaine cream applied once to both hind paws 30 minutes before measurement): 1.48 ± 0.12 g

Molecule: CC(C(=O)O)c1ccc(CC2CCCC2=O)cc1 (stereo not drawn) [loxoprofen sodium]
- reducing pain signalling in CIPN model [8]: ineffective

Molecule: O=C1[O][Pt]2([NH][C@@H]3CCCC[C@H]3[NH]2)[O]C1=O [oxaliplatin]
- reduction of allodynia score by the chemotherapeutic ([9]; at day 0, two study groups respectively): 65% and 56%

- mechanical allodynia score, mean±SEM ([10]; day 0, after vincristine, all three groups): 0.7 ± 0.07 g
- reduction of mechanical allodynia score by the chemotherapeutic ([10]; day -7 vs day 0, three vincristine groups): 61%-65%
Molecule: CC[C@]1(O)C[C@H]2CN(CCc3c([nH]c4ccccc34)[C@@](C(=O)OC)(c3cc4c(cc3OC)N(C=O)[C@H]3[C@@](O)(C(=O)OC)[C@H](OC(C)=O)[C@]5(CC)C=CCN6CC[C@]43[C@@H]65)C2)C1 [vincristine, reference compound]

Molecule: phosphosulindac [PS]
- mechanical allodynia score, mean±SEM ([9]; after PS 8% ointment 3x/day (day 22) vs day -15 baseline): 1.8 ± 0.09 g
- topical or systemic side effects [11]: no topical or systemic side effects
- cold allodynia score (acetone test), Mean±SEM ([1]; PS 5% for 15 days after induction of CIPN, day 15, vehicle 9.3±0.7): 3.1 ± 0.4 s
- inhibition of COX-1 expression [12]: does not inhibit
- increase of allodynia score compared to day 0 ([10]; PS treatment for 16 days): 114%
- mechanical allodynia score, mean±SEM ([10]; day 16, PS 8% ointment to hind paws 3x/day (vincristine alone group: no topical treatment)): 1.5 ± 0.09 g
- inhibition of COX-2 expression [13]: does not inhibit
- Fold difference (distal vs proximal half of sciatic nerve) [6, 17]: 18.5 and 18.9
- Distal half of the sciatic nerve, mean ± SEM [6, 18]: 17 ± 5.1 µM
- Proximal half of the sciatic nerve, μM, mean ± SEM [6, 18]: 0.9 ± 0.3 µM
- AUC0-24 h [7, 19]: 4.5 µM·h
- Tmax [7, 19]: 18 h
- Cmax [7, 19]: 0.3 ± 0.1 µM
- AUC0-24 h [7, 20]: 12.0 µM·h
- T1/2, h [7, 20]: 57.4 h
- Tmax [7, 20]: 0.5 h
- Cmax [7, 20]: 0.9 ± 0.1 µM
- presence in the systemic circulation ([7]; blood after topical PS 8% ointment, limit of quantitation 0.1 μM for PS): no PS was detected
- AUC0-24 h [7, 21]: 171.6 µM·h
- T1/2, h [7, 21]: 20.6 h
- Tmax [7, 21]: 0.5 h
- Cmax [7, 21]: 35 ± 3.6 µM
- AUC0-24 h [7, 22]: 411.2 µM·h
- T1/2, h [7, 22]: 11.4 h
- Tmax [7, 22]: 0.5 h
- Cmax [7, 22]: 102 ± 4.6 µM
- AUC0-24 h, μM · h [7, 23]: 1,609.8 μM · h
- T1/2, h [7, 23]: 16.1 h
- Tmax [7, 23]: 0.5 h
- Cmax [7, 23]: 195 ± 5.3 µM
- t1/2 of the skin and the muscles ([7]; range over paw skin, paw muscle, leg muscle, topical PS 8% ointment): 11.4 to 20.6 h
- mechanical allodynia score, mean±SEM ([2]; day 0 (initiation of topical treatment, CIPN established)): 0.79 ± 0.08 g
- mechanical allodynia score, mean±SEM ([2]; day 5, PS 8% ointment to hind paws 3x/day): 1.17 ± 0.07 g
- mechanical allodynia score, mean±SEM ([2]; day 16, PS 8% ointment to hind paws 3x/day (paclitaxel only group: no topical treatment)): 2.49 ± 0.18 g
- PWT, g Mean ± SEM ([3]; PS 1.2% to both hind paws 3 times a day from day 0, measured day 14): 0.98 ± 0.06 g
- PWT, g Mean ± SEM ([3]; PS hydrogel 5% to both hind paws 3 times a day from day 0, measured day 14): 1.24 ± 0.07 g
- topical or systemic side effects ([4]; PS ointment, prevention study): no topical or systemic side effects
- mechanical allodynia score, mean±SEM [4]: 1.2 ± 0.15 g
- PWT, gm Mean ± SEM [5]: 0.4 ± 0.01 gm
- PWT, % baseline Mean ± SEM [14]: 102.55 ± 4.92 % baseline
